According to patent US20240269139A1, “COMPOUNDS FOR TARGETED PROTEIN DEGRADATION OF KINASES” (DANA-FARBER CANCER INSTITUTE, INC., priority 2020, published 2024):
Read-outs that look alike come from different tables or passages of the source.

Tests used:
[1] = biological target: protein kinases (human kinome) (Homo sapiens, UniProt P16591); assay type: cell-based
[2] = biological target: protein kinases (human kinome) (Homo sapiens, UniProt P49759); assay type: cell-based
[3] = biological target: protein kinases (human kinome) (Homo sapiens, UniProt Q9HBH9); assay type: cell-based
protein kinases (human kinome) (Homo sapiens, UniProt Q9HBH9), sequence (Q9HBH9 whole entry): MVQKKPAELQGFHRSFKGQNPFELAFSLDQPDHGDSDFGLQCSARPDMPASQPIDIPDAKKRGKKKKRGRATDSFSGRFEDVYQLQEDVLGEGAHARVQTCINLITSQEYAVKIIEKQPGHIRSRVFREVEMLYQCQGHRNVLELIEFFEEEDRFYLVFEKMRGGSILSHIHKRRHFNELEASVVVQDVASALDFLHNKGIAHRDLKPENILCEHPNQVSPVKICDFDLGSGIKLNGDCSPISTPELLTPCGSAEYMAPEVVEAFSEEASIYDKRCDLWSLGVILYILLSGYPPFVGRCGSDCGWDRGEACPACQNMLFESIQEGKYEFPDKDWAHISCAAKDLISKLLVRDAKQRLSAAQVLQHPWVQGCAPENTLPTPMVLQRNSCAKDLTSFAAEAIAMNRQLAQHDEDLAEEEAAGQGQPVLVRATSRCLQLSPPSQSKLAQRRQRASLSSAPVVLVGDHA

[4] = biological target: T1, protein kinases (human kinome) (Homo sapiens, UniProt Q8TAS1); assay type: cell-based; settings: experiment wp168
T1 sequence (Q8TAS1 1-419): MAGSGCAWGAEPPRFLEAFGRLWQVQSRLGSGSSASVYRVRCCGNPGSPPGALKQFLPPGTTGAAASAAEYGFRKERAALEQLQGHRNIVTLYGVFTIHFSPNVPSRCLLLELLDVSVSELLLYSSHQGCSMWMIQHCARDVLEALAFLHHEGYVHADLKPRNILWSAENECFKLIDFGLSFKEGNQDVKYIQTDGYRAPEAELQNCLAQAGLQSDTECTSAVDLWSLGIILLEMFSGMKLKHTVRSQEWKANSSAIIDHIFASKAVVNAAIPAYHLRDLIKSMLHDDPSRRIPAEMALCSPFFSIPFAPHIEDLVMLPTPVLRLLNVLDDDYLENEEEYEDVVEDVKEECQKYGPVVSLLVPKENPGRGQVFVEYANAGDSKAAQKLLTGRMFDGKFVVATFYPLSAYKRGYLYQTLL

[5] = biological target: protein kinases (human kinome) (Homo sapiens, UniProt P45984); assay type: cell-based; settings: MAPK9 P45984-1; experiment wp168
[6] = biological target: protein kinases (human kinome) (Homo sapiens, UniProt P12931); assay type: cell-based
[7] = biological target: protein kinases (human kinome) (Homo sapiens, UniProt P11802); assay type: cell-based; settings: experiment wp168
[8] = biological target: protein kinases (human kinome) (Homo sapiens, UniProt P07947); assay type: cell-based; settings: YES1 (P07947), experiment wp168
[9] = biological target: protein kinases (human kinome) (Homo sapiens, UniProt P53667); assay type: cell-based; settings: LIMK1 (P53667-1), experiment wp168
[10] = biological target: protein kinases (human kinome) (Homo sapiens, UniProt Q9H0K1); assay type: cell-based; settings: experiment wp168
protein kinases (human kinome) (Homo sapiens, UniProt Q9H0K1), sequence (Q9H0K1 whole entry): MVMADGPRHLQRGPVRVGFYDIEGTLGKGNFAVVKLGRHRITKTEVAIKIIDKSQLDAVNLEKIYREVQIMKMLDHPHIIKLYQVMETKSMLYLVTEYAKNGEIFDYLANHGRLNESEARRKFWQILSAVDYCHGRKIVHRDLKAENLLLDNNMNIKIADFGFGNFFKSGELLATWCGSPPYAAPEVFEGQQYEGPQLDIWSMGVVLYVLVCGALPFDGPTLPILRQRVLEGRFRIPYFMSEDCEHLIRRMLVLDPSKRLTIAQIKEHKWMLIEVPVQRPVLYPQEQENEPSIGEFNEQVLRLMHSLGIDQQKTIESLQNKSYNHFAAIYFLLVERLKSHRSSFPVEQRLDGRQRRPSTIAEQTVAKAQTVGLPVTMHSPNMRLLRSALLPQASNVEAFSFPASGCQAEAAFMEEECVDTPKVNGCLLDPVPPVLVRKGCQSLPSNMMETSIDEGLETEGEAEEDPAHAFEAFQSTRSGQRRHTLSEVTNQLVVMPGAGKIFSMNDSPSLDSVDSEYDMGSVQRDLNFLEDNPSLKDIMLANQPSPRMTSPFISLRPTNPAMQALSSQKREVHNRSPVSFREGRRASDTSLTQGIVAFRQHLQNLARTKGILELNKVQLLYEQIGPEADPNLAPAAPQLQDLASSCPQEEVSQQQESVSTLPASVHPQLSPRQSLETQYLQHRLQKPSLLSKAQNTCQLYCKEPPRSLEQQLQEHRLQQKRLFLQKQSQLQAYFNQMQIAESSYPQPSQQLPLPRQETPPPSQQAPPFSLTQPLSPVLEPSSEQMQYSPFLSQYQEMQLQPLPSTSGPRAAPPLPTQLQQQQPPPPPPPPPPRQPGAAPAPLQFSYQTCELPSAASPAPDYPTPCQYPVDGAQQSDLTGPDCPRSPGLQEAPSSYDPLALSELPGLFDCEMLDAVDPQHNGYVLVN

[11] = biological target: protein kinases (human kinome) (Homo sapiens, UniProt P35790); assay type: cell-based; settings: CHKA P35790; experiment wp168
[12] = biological target: protein kinases (human kinome) (Homo sapiens, UniProt P53350); assay type: cell-based; settings: PLK1 P53350; experiment wp168
[13] = tested on: protein kinases (human kinome); assay type: cell-based
[14] = biological target: protein kinases (human kinome) (Homo sapiens, UniProt Q07912); assay type: cell-based
[15] = biological target: protein kinases (human kinome) (Homo sapiens, UniProt P41240); assay type: cell-based; settings: experiment wp168
protein kinases (human kinome) (Homo sapiens, UniProt P41240), sequence (P41240 whole entry): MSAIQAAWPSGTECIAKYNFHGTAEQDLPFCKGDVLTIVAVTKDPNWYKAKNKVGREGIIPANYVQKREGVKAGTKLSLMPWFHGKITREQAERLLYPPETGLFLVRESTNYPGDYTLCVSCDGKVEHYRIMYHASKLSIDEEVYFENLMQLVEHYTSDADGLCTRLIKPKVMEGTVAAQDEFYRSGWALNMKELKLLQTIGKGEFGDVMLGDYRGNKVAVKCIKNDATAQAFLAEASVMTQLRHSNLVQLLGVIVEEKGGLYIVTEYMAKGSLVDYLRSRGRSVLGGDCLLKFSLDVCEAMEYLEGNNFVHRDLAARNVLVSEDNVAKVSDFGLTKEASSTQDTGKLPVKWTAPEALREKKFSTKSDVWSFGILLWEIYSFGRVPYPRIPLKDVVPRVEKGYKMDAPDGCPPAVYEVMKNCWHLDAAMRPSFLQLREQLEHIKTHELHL

[16] = biological target: protein kinases (human kinome) (Homo sapiens, UniProt P51451); assay type: cell-based
[17] = biological target: protein kinases (human kinome) (Homo sapiens, UniProt P04183); assay type: cell-based; settings: TK1 (P04183); experiment wp168
[18] = biological target: protein kinases (human kinome) (Homo sapiens, UniProt P06239); assay type: cell-based; settings: experiment wp168
protein kinases (human kinome) (Homo sapiens, UniProt P06239), sequence (P06239 whole entry): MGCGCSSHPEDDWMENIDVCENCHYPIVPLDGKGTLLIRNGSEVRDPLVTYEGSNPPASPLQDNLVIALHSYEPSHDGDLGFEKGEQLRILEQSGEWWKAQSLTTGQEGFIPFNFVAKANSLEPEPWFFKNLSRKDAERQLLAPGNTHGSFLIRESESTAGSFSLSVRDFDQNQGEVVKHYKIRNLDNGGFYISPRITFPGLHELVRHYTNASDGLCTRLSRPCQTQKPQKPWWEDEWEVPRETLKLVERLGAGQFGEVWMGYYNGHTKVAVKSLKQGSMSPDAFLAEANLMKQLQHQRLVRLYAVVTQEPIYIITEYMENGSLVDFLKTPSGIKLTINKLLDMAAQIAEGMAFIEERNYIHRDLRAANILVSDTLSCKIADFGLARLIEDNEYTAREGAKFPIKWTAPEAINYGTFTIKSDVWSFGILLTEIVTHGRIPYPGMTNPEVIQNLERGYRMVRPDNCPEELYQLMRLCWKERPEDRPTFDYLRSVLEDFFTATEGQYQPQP

[19] = biological target: extended human kinome (kinase-like proteins) (Homo sapiens, UniProt Q16875); assay: Whole cell quantitative proteomics: extended kinome hits; settings: Accession Q16875; experiment wp168
[20] = biological target: protein kinases (human kinome) (Homo sapiens, UniProt Q00534); assay type: cell-based; settings: for logFC CDK6: CDK6 (Q00534), direction down; for logFC of CDK6 (Q00534): down
protein kinases (human kinome) (Homo sapiens, UniProt Q00534), sequence (Q00534 whole entry): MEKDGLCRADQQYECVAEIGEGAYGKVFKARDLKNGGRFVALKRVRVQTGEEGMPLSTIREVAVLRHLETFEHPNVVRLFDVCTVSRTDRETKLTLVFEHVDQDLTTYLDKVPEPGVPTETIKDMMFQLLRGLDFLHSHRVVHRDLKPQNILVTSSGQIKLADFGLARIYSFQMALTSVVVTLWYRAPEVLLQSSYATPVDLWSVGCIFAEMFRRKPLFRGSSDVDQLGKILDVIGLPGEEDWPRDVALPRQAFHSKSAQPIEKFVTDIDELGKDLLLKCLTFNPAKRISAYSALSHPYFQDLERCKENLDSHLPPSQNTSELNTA

[21] = biological target: protein kinases (human kinome) (Homo sapiens, UniProt Q96GD4); assay type: cell-based; settings: experiment wp164
[22] = biological target: protein kinases (human kinome) (Homo sapiens, UniProt Q9HBU6); assay type: cell-based; settings: protein ETNK1 (Q9HBU6-1); experiment wp088; down
[23] = biological target: protein kinases (human kinome) (Homo sapiens, UniProt Q2M2I8); assay type: cell-based
protein kinases (human kinome) (Homo sapiens, UniProt Q2M2I8), sequence (Q2M2I8 whole entry): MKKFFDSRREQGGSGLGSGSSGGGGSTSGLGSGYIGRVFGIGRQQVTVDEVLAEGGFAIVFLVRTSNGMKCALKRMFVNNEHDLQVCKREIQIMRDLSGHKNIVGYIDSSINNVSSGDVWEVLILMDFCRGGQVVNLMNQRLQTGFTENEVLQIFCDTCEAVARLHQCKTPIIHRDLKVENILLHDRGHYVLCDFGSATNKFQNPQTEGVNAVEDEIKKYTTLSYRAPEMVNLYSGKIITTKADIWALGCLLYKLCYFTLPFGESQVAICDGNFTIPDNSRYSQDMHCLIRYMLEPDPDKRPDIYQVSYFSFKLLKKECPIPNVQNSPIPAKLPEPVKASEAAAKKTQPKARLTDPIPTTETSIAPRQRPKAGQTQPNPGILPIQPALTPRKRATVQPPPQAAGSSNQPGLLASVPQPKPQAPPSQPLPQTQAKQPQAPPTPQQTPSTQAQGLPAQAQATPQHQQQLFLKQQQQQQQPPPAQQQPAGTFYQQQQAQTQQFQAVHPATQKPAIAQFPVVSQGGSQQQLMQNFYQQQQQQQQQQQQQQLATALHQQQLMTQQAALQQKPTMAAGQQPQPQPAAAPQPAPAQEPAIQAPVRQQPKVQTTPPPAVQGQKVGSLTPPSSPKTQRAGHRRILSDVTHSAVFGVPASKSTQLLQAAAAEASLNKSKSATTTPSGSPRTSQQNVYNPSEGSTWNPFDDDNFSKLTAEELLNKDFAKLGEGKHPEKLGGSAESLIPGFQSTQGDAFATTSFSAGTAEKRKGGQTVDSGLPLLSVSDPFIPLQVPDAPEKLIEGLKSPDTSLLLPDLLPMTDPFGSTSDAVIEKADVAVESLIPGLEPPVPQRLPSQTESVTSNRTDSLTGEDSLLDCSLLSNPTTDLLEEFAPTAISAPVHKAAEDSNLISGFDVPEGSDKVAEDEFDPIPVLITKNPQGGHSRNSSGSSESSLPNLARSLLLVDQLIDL

[24] = biological target: T2, protein kinases (human kinome) (Homo sapiens, UniProt O14965); assay type: cell-based
T2 sequence (O14965 1-403): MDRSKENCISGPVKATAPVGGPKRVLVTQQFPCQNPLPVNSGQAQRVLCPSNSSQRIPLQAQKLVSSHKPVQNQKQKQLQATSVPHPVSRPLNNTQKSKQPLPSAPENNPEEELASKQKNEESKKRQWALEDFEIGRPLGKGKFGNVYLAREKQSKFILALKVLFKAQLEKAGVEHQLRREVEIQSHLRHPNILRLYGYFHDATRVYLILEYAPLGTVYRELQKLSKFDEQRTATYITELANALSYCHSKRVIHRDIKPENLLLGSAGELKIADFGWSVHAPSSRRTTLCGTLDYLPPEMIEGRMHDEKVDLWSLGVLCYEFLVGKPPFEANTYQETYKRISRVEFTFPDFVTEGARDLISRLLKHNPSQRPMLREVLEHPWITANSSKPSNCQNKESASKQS

[25] = biological target: T3, protein kinases (human kinome) (Homo sapiens, UniProt Q9UEE5); assay type: cell-based; settings: STK17A Q9UEE5; experiment wp088
T3 sequence (Q9UEE5 1-414): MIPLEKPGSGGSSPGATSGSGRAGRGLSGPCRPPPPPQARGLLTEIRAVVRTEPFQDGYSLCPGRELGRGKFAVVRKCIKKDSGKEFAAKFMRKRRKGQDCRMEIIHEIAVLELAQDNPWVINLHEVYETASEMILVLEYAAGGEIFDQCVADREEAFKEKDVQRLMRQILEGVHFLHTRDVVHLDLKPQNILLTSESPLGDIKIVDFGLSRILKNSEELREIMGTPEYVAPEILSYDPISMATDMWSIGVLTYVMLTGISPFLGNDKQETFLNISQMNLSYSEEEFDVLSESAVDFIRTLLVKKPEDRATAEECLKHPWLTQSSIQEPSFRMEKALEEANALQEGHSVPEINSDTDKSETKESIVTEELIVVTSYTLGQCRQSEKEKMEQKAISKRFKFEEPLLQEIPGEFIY

[26] = biological target: protein kinases (human kinome) (Homo sapiens, UniProt P50750); assay type: cell-based; settings: experiment wp164
[27] = biological target: T4, protein kinases (human kinome) (Homo sapiens, UniProt P33981); assay type: cell-based; settings: experiment wp164
T4 sequence (P33981 1-857): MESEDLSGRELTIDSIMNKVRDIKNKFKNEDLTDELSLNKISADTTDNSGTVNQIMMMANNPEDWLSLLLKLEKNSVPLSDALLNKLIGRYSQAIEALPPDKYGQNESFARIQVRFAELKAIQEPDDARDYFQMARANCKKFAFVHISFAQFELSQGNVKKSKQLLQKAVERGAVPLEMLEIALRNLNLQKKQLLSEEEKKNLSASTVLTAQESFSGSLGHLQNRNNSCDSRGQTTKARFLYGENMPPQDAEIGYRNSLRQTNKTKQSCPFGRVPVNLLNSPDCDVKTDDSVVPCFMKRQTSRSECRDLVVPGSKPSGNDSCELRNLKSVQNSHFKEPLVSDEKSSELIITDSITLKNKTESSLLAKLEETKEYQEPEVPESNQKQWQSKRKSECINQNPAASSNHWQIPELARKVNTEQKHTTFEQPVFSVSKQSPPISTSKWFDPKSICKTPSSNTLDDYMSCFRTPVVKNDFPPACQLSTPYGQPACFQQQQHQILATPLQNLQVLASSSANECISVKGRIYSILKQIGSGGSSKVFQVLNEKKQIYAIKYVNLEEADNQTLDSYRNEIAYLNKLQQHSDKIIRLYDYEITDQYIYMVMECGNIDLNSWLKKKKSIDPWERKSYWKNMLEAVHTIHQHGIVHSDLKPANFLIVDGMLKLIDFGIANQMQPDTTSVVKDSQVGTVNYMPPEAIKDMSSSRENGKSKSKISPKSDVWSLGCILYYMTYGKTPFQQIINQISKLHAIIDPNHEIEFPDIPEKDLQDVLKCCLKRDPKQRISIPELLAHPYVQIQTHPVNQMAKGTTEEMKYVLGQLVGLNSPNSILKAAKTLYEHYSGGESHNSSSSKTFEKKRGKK

[28] = Experiment wp168, direction down
[29] = AURKB Q96GD4-5, experiment wp088

protein kinases (human kinome) (Homo sapiens, UniProt P16591), sequence (P16591 whole entry): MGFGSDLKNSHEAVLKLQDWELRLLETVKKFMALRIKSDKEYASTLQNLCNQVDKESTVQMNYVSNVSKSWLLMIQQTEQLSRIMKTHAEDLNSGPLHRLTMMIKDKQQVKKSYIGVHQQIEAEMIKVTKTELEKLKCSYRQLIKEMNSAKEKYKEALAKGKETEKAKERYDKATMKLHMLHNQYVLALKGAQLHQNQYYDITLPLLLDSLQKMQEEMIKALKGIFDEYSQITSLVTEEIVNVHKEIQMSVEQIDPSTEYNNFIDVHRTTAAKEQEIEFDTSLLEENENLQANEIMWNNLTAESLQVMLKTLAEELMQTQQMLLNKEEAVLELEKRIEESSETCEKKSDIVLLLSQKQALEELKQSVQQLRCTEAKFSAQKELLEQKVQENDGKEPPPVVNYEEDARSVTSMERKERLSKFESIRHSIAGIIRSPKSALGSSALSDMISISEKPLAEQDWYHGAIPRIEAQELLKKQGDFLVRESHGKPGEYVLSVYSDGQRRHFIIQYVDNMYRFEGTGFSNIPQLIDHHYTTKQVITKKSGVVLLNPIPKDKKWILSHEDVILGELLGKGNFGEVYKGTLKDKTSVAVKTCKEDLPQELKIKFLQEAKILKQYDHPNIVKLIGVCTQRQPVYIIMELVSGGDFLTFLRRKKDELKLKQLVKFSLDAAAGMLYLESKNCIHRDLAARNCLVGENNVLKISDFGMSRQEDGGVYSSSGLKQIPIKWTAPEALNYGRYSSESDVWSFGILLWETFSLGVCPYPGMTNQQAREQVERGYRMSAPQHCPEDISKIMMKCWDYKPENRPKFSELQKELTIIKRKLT
protein kinases (human kinome) (Homo sapiens, UniProt P49759), sequence (P49759 whole entry): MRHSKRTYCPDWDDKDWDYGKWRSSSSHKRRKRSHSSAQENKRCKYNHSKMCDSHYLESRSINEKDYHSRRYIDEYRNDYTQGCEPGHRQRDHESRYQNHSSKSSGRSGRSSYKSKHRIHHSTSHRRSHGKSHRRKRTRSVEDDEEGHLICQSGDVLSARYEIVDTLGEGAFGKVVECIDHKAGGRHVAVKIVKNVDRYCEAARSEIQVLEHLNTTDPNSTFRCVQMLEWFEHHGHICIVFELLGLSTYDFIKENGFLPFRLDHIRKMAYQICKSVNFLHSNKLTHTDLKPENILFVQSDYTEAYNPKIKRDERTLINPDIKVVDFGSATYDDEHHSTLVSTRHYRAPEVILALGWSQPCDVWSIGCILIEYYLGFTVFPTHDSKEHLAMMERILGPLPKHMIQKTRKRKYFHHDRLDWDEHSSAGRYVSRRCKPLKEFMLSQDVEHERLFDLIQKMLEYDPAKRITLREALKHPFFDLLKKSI

Cc1ccc(NC(=O)c2cccc(C(F)(F)F)c2)cc1N1Cc2cnc(Nc3ccc(N4CCN(CCOc5cccc6c5C(=O)N(C5CCC(=O)NC5=O)C6=O)CC4)nc3)nc2N(C)C1=O (centres unmarked) [DB0661]
logFC of FER (P16591-1) ([1]; Experiment wp168, down): −0.6143
logFC of FER ([1]; FER P16591-1, experiment wp168): −0.6143
logFC CLK1 ([2]; CLK1 P49759, experiment wp168): −0.3319
logFC of CLK1 (P49759) ([2]; Experiment wp168): −0.3319
logFC MKNK2 (Q9HBH9-1) [3, 28]: −0.5094
logFC ([3]; MKNK2 (Q9HBH9-1), experiment wp168): −0.5094
logFC UHMK1 ([4]; Accession Q8TAS1, direction down): −0.416
logFC UHMK1 ([4]; UHMK1 (Q8TAS1)): −0.416
logFC [5]: −1.961
logFC MAPK9 [5]: −1.961
logFC of SRC ([6]; Accession P12931, experiment wp168): −0.6685
logFC of SRC (P12931) ([6]; Experiment wp168): −0.6685
logFC CDK4 (P11802) [7]: −0.4978
logFC [8]: −0.5229
logFC ([8]; direction down): −0.5229
logFC LIMK1 ([9]; direction down): −1.116
logFC LIMK1 ([9]; down): −1.116
logFC of SIK2 ([10]; Accession Q9H0K1): −0.3628
logFC SIK2 (Q9H0K1) ([10]; direction of change down): −0.3628
logFC [11]: −0.3607
logFC [12]: −0.3453
logFC PLK1 [12]: −0.3453
logFC MAPK8 (P45983-4) [13, 28]: −0.5033
logFC MAPK8 ([13]; MAPK8 P45983-4, experiment wp168): −0.5033
logFC ([13]; PTK2B (Q14289-2), experiment wp168, direction down): −1.935
logFC PTK2B ([13]; PTK2B, accession Q14289-2, experiment wp168, direction of change down): −1.935
kinases the bifunctional compound degrades ([13]; as stated for the structure in the embodiments): BLK, CDK4, CLK1, CSK, FER, LCK, LIMK1, MAPK8, MAPK9, MKNK2, PLK1, PTK2B, SIKA2, SRC, TNK2, UHMK1, and YES1
Kinase hits ([13]; kinases significantly downregulated vs DMSO (fold change cutoff −1.25, P-value<0.01), ≤8 h, 0.1-5 μM degrader, 7 cell lines): BLK, CDK4, CLK1, CSK, FER, LCK, LIMK1, MAPK8, MAPK9, MKNK2, PLK1, PTK2B, SIKa2, SRC, TNK2, UHMK1, YES1
Total no. kinase hits ([13]; number of degraded kinases per library compound): 17
logFC TNK2 (Q07912-1) [14, 28]: −0.3873
logFC TNK2 ([14]; TNK2 (Q07912-1), experiment wp168): −0.3873
logFC of CSK ([15]; Accession P41240): −1.526
logFC CSK ([15]; CSK (P41240), down): −1.526
logFC BLK ([16]; BLK (P51451), direction down, experiment wp168): −1.428
logFC of BLK (P51451) ([16]; Experiment wp168, down): −1.428
logFC [17]: −0.3523
logFC LCK ([18]; LCK P06239-1): −0.4717
logFC LCK ([18]; LCK, accession P06239-1, direction of change down): −0.4717
logFC PFKFB3 [19]: −0.4392

O=C(CCCCCCNC(=O)COc1cccc2c1C(=O)N(C1CCC(=O)NC1=O)C2=O)NCCOc1ccc(Nc2ncc3ccc(=O)n(C4CC5CCC4C5)c3n2)cc1 (centres unmarked) [SB1.G.194]
logFC CDK6 ([20]; experiment wp088): −0.4731
logFC CDK6 ([20]; experiment wp164): −1.23
logFC of CDK6 (Q00534) ([20]; Experiment wp088): −0.4731
logFC of CDK6 (Q00534) ([20]; Experiment wp164): −1.23
logFC AURKB ([21]; AURKB Q96GD4): −0.4883
logFC of AURKB (Q96GD4) [21]: −0.4883
logFC ETNK1 [22]: −0.3662
logFC AAK1 ([23]; AAK1 (Q2M218-1), experiment wp088, down): −0.3482
logFC AAK1 ([23]; AAK1 (Q2M218-1), experiment wp164, down): −0.379
logFC AAK1 ([23]; AAK1, accession Q2M218-1, experiment wp088, direction of change down): −0.3482
logFC AAK1 ([23]; AAK1, accession Q2M218-1, experiment wp164, direction of change down): −0.379
logFC [13, 29]: −0.3846
logFC AURKB [13, 29]: −0.3846
logFC FGFR2 (P21802-11) ([13]; Experiment wp088, direction of change down): −0.4804
logFC FGFR2 ([13]; protein FGFR2 (P21802-11), experiment wp088, down): −0.4804
logFC AURKA (O14965) ([24]; experiment wp088): −1.175
logFC AURKA (O14965) ([24]; experiment wp164): −2.035
logFC [25]: −0.6434
logFC STK17A [25]: −0.6434
logFC CDK9 (P50750) [26]: −0.8391
logFC of CDK9 (P50750) [26]: −0.8391
logFC TTK ([27]; Accession P33981): −0.4279
logFC TTK (P33981) [27]: −0.4279
